In paper PMC12579162, “Synthesized Depside Molecules Suppress the Progression of Colorectal Cancer by Binding VDAC1/PHB/MMP9 Being at the Crossroads of Stemness, Motility, Apoptosis, and Metabolism” (MedComm, 2025):

Columns and labels:
CSC221 cells [1] = experiment: MTT cell viability, CSC221; type: cell-based; conditions: Homo sapiens; 48 h, MTT assay
Protocol: (§1) Cells (3 × 10^3 cells/well) were seeded on a 96‐well plate, grown overnight, and then treated with compounds at indicated concentrations for 48 h. After incubation with MTT for 4 h at 37°C, cells were lysed with 150 µL of DMSO (Sigma–Aldrich, St. Louis, USA). Absorbance was measured at 570 nm on a microplate reader with the Gen5 software (v.2.03.1; BioTek, Winooski, VT, USA).

CaCo2 cells = experiment: MTT cell viability, CaCo2; type: cell-based; conditions: Homo sapiens, Caco-2; 48 h, MTT assay
Protocol: as §1

SW620 cells = experiment: MTT cell viability, SW620; type: cell-based; conditions: Homo sapiens, SW-620; 48 h, MTT assay
Protocol: as §1

HEK293T cells = experiment: MTT cell viability, HEK293T; type: cell-based; conditions: Homo sapiens, HEK-293T; 48 h, MTT assay
Protocol: as §1

NIH3T3 cells = experiment: MTT cell viability, NIH3T3; type: cell-based; conditions: Mus musculus, 48 h, MTT assay
Protocol: as §1

CSC221 cells [2] = experiment: Spheroid formation assay, CSC221; type: cell-based, human; conditions: for spheroid formation, cotreatment with cetuximab: CSC221, 5 µM with cetuximab 10, 25, and 50 µg/mL, 2 weeks; for spheroid formation: CSC221, up to 10 µM, 14 days, compared with TU and DA
Protocol: Monolayer cells were separated into single‐cell suspensions at around 70% confluence using a solution of trypsin. After that, the cells were added to N2‐supplemented DMEM/F12 that contained human basal fibroblast growth factor and human recombinant epidermal growth factor. Cells seeded at a density of 5 × 10^3 cells/well in ultra‐low attachment 24‐well plates (Corning Inc., Corning, NY, USA). After 10–14 days of culture, spheres were quantitated by inverted phase contrast microscopy. The relative sphere formation ability was calculated through the IMT iSolution software (IMT iSolution Inc., Northampton, NJ, USA) measuring the pixel intensity of the sphere area randomly in each plate.

[3] = system: MMP9 promoter in HEK293T cells; experiment: MMP9 promoter reporter assay; type: cell-based, human; conditions: 2.5 and 5 µM, 24 h
Protocol: HEK293T was plated in a 24-well plate, left to attach, and then transfected with 100 ng of AP-1, STAT, Gli, CSL, TOPFLASH (with 100 ng β-catenin), NF-kB, Hes-1 and MMP9 reporter plasmids with 2 ng of Renilla-luc (pRL-TK) plasmid. MMP9 reporter assays were tested by stimulating Gli1-Flag, Gli2-Flag, ΔEN1-Myc, and MYC-flag plasmids. Transfections were performed using the X-treme GENE 9 DNA transfection reagent (Roche, Werk Penzberg, Germany). After 24 hours transfection, cells were treated with compounds or DMSO and incubated for 24 h at 37 °C under 5% CO2. The Dual-Luciferase reporter assay system (Promega, Madison, WI, USA) was used.

| Structure (SMILES) | IC50 (CSC221 cells [1]) [µM] | IC50 (CaCo2 cells) [µM] | IC50 (SW620 cells) [µM] | IC50 (HEK293T cells) [µM] | IC50 (NIH3T3 cells) [µM] | spheroid formation, cotreatment with cetuximab (CSC221 cells [2]) | spheroid formation (CSC221 cells [2]) | MMP9 promoter activity [3] |
| --- | --- | --- | --- | --- | --- | --- | --- | --- |
| COCCOc1c(C)c(OC(=O)c2c(C)cc(OC)c(C)c2OC)cc(C)c1C(=O)OC [SB4, 4-(Methoxycarbonyl)-3-(2-methoxyethoxy)-2,5-dimethylphenyl 2,4-dimethoxy-3,6-dimethylbenzoate] | 60 | 8.74 | 5.33 | 19 | 121 | significantly reduced the adverse effects of cetuximab | suppress spheroid formation more strongly than TU and DA | downregulated |
| COCCCOc1c(C)c(OC(=O)c2c(C)cc(OC)c(C)c2OC)cc(C)c1C(=O)OC [SB5, 4-(Methoxycarbonyl)-3-(3-methoxypropoxy)-2,5-dimethylphenyl 2,4-dimethoxy-3,6-dimethylbenzoate] | 131 | 2.77 | 2.27 | 63.2 | 112 | significantly reduced the adverse effects of cetuximab | suppress spheroid formation more strongly than TU and DA | downregulated |
